Consider 16 compounds from patent US12686692B2, “KRas G12D inhibitors” (Mirati Therapeutics, Inc., priority 2020, dated 2026).

Each structure is given as a SMILES string. pIC50, pKd: −log10 of the molar value.

For assay [1], the target named is T1, KRas G12D (Homo sapiens, UniProt P01116, G12D). The assay can be described thus: KRas G12D Binding Assay (TR-FRET displacement of labeled tracer). Details: corresponding to amino acids 1:169, produced at Array BioPharma; biotin (protein is biotinylated). The conditions noted are these: TR-FRET displacement of Cy5 labelled tracer, biotinylated GDP-loaded KRAS G12D (aa 1:169), 60 minute incubation at 22° C. A digest of the protocol: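 Biotinylated GDP-loaded human KRAS G12D (aa 1–169) incubated with Cy5 tracer, Eu-streptavidin and compound (2% DMSO final) in 50 mM HEPES pH 7.5, 5 mM MgCl2, 0.005% Tween-20, 1 mM DTT, 60 min at 22 °C. TR-FRET ratio converted to percent of control; IC50 at 50 POC from 4-parameter logistic fit.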
Target sequence in this assay (P01116 1-169 isoform P01116-2 G12D): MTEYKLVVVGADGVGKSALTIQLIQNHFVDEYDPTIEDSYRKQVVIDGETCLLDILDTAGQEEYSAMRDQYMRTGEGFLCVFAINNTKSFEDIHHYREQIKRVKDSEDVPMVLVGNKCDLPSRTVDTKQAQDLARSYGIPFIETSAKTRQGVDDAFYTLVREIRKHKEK

For assay [2], the target named is T1, KRas G12D. The assay is described as follows: KRas G12D Surface Plasmon Resonance (SPR) Binding Assay. The note with it: Biacore T200, biotinylated Avidin-tagged KRAS protein on SA chip, 20 C, 1:1 binding model. The protocol:
This Example illustrates that exemplary compounds of the present invention bind to KRas G12D as measured by surface plasmon resonance (SPR). Briefly, 1 L of 1.05×HBS-Mg buffer (262.5 mM BioUltra Hepes, pH 7.5, 157.5 mM NaCl, 105 mM MgCl2, 0.525 mM TCEP, […] Brij-35) was prepared and filter sterilized using a 0.22 μm bottle top filter. Approximately 50 mL of 1.05×HBS-Mg buffer was removed and saved for future dilutions. A 50 mL aliquot of DMSO (Sigma Aldrich DMSO Lot. #SHBK2079) was added and continued to stir for 10 minutes, creating the final 1.0×HBS-Mg buffer (250 mM BioUltra Hepes pH 7.5, 150 mM NaCl, 100 mM MgCl2, 0.5 mM TCEP, 0.03% Brij-35). Biacore T200 instrument was primed using 1.0×HBS-Mg buffer before docking a GE Streptavidin (SA) chip and then primed two additional times prior to beginning the immobilization step. All immobilized protein mixtures were created using 3-5 mg/mL Biotinylated Avidin-tagged KRAS protein using the following immobilization settings: SA chip type, 1 flow cells per cycle, 720 second contact time, and 5 μL/min flow rate. Normalization of the detector was also performed during the immobilization step using the GE BiaNormalize solution. All compounds were diluted to 10 mM in 100% DMSO prior to being diluted 20× in 1.05× buffer. Another 10× dilution was created using 1.0× buffer prior to performing a series of 3× dilutions to create a compound concentration curve using the following assay settings: 20 C analysis temperature, General Settings=10 Hz data collection rate and multi-detection; Assay Steps=all set to LMW kinetics; Cycle Types=LMW kinetics (60s contact time, 120s dissociation time, 100 μL/min flow rate, extra wash after injection with 50% DMSO, flow path 1,2,3,4); Flow path detection=2-1, 4-3). Data evaluation was performed using the Biacore T200 Evaluation software and data fit to 1:1 binding model.
For orientation: In SPR one partner is held on a chip, and binding of the other changes the refractive index at the surface.
Target sequence in this assay (P01116 1-188 isoform P01116-2 G12D): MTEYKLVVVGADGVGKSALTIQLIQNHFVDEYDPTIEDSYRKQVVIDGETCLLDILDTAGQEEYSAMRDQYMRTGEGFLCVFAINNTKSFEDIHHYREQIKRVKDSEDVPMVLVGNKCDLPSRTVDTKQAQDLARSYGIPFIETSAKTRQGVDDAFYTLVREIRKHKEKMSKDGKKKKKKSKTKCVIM

Assay [3] concerns KRas G12D-mediated Phosphorylation of ERK. The assay is described as follows: Inhibition of KRas G12D-mediated Phosphorylation of ERK in AGS cells. In kind it is cell-based. The note with it: Homo sapiens; AGS cells expressing G12D, 3 hours, phospho-ERK normalized to GAPDH. The gist of the method:
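AGS cells (endogenous KRas G12D) were treated with compounds for 3 h in 0.5% DMSO, then fixed, permeabilized and immunostained. The phospho-ERK (Thr202/Tyr204) signal was normalized to GAPDH in-cell by infrared detection and expressed as % of DMSO control. IC50 came from a 4-parameter fit.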

For the compound `CN1CCC[C@H]1COc1nc2c(c(N3C[C@H]4CC[C@@H](C3)N4)n1)CCN(c1cccc3ccc(F)c(Cl)c13)C2` [Example 65, 4-((1R,5S)-3,8-diazabicyclo[3.2.1]octan-3-yl)-7-(8-chloro-7-fluoronaphthalen-1-yl)-2-(((S)-1-methylpyrrolidin-2-yl)methoxy)-5,6,7,8-tetrahydropyrido[3,4-d]pyrimidine], the pIC50 in assay [1] was 7.82; in assay [3], less than 4.78. The compound also gave a pKd in assay [2] of 7.74.
On the same counts, the results for `Fc1ccc2cccc(N3CCc4c(nc(OCC56CCCN5CCC6)nc4N4C[C@H]5CC[C@@H](C4)N5)C3)c2c1Cl` [Example 62, 4-((1R,5S)-3,8-diazabicyclo[3.2.1]octan-3-yl)-7-(8-chloro-7-fluoronaphthalen-1-yl)-2-((tetrahydro-1H-pyrrolizin-7a(5H)-yl)methoxy)-5,6,7,8-tetrahydropyrido[3,4-d]pyrimidine] are 9.00, 5.71 and 8.09.
`Clc1cccc2cccc(N3CCc4c(nc(OCC56CCCN5CCC6)nc4N4C[C@H]5CC[C@@H](C4)N5)C3)c12` [Example 29, 4-((1R,5S)-3,8-diazabicyclo[3.2.1]octan-3-yl)-7-(8-chloronaphthalen-1-yl)-2-((tetrahydro-1H-pyrrolizin-7a(5H)-yl)methoxy)-5,6,7,8-tetrahydropyrido[3,4-d]pyrimidine]: the pIC50 is 8.60 in assay [1] and 5.39 in assay [3]. Besides, in assay [2], the pKd was 8.20.
The matching figures for `C[C@@H]1CC2CN(c3nc(OC[C@@H]4CCCN4C)nc4c3CCN(c3cccc5cccc(Cl)c35)C4)C[C@H]1N2` (single isomer, unassigned) [Example 87]: 6.57, 4.87 and 6.15.
On the same counts, the results for `CN1CCC[C@H]1COc1nc2c(c(N3CC4CC(O)C(C3)N4)n1)CCN(c1cc(O)cc3ccccc13)C2` (mixture of isomers) [Example 4, 3-(7-(3-hydroxynaphthalen-1-yl)-2-(((S)-1-methylpyrrolidin-2-yl)methoxy)-5,6,7,8-tetrahydropyrido[3,4-d]pyrimidin-4-yl)-3,8-diazabicyclo[3.2.1]octan-6-ol] are 8.43, 6.00 and 8.82.
Take `CN1CCC[C@H]1COc1nc2c(c(N3C[C@@H]4C[C@H](O)[C@H](C3)N4)n1)CCN(c1cc(O)cc3ccccc13)C2` (single isomer, unassigned) [Example 55]: the pIC50 in assay [1] was 6.11; in assay [3] it was 5.31. For the same compound, in assay [2], the pKd was 4.41.
As for `FC(F)(F)c1c(Cl)cccc1N1CCc2c(nc(OCC34CCCN3CCC4)nc2N2C[C@H]3CC[C@@H](C2)N3)C1` [Example 63, 4-((1R,5S)-3,8-diazabicyclo[3.2.1]octan-3-yl)-7-(3-chloro-2-(trifluoromethyl)phenyl)-2-((tetrahydro-1H-pyrrolizin-7a(5H)-yl)methoxy)-5,6,7,8-tetrahydropyrido[3,4-d]pyrimidine], the values for the pIC50 in assay [1] and in assay [3] were 8.29 and 5.18, respectively. In addition, the pKd in assay [2] is 7.91.
The matching figures for `CO[C@@H]1C[C@@H]2CN(c3nc(OC[C@@H]4CCCN4C)nc4c3CCN(c3cc(O)cc5ccccc35)C4)C[C@H]1N2` [Example 37, 4-(4-((1R,5R,6R)-6-methoxy-3,8-diazabicyclo[3.2.1]octan-3-yl)-2-(((S)-1-methylpyrrolidin-2-yl)methoxy)-5,8-dihydropyrido[3,4-d]pyrimidin-7(6H)-yl)naphthalen-2-ol]: 7.06, 5.41 and 4.89.
As to `CN1CCC[C@H]1COc1nc2c(c(N3C[C@H]4CC[C@@H](C3)N4)n1)CCN(c1cccc3ccc(F)cc13)C2` [Example 72, 4-((1R,5S)-3,8-diazabicyclo[3.2.1]octan-3-yl)-7-(7-fluoronaphthalen-1-yl)-2-(((S)-1-methylpyrrolidin-2-yl)methoxy)-5,6,7,8-tetrahydropyrido[3,4-d]pyrimidine], the figures for the pIC50 in assay [1] and in assay [3] were 6.65 and less than 4.78, respectively. In assay [2], this compound had a pKd of 6.04.
Regarding `CN1CCC[C@H]1COc1nc2c(c(N3C[C@H]4CC(CCO)[C@@H](C3)N4)n1)CCN(c1cccc3cccc(Cl)c13)C2` (stereo partly drawn) [Example 91, 2-((1R,5S)-3-(7-(8-chloronaphthalen-1-yl)-2-(((S)-1-methylpyrrolidin-2-yl)methoxy)-5,6,7,8-tetrahydropyrido[3,4-d]pyrimidin-4-yl)-3,8-diazabicyclo[3.2.1]octan-6-yl)ethan-1-ol], the figures for the pIC50 in assay [1] and in assay [3] were 7.11 and less than 4.78, respectively. In addition, the pKd in assay [2] is 6.75.
On the same counts, the results for `CN1CCC[C@H]1COc1nc2c(c(N3C[C@H]4C[C@@H](CC#N)[C@@H](C3)N4)n1)CCN(c1cccc3cccc(Cl)c13)C2` [Example 40, 2-((1R,5S,6S)-3-(7-(8-chloronaphthalen-1-yl)-2-(((S)-1-methylpyrrolidin-2-yl)methoxy)-5,6,7,8-tetrahydropyrido[3,4-d]pyrimidin-4-yl)-3,8-diazabicyclo[3.2.1]octan-6-yl)acetonitrile] are 7.19, less than 4.78 and 6.02.
Consider `CO[C@@H]1C[C@@H]2CN(c3nc(OCC45CCCN4CC(F)C5)nc4c3CCN(c3cccc5cccc(Cl)c35)C4)C[C@H]1N2` (mixture of isomers) [Example 43, 7-(8-chloronaphthalen-1-yl)-2-((2-fluorotetrahydro-1H-pyrrolizin-7a(5H)-yl)methoxy)-4-((1R,5R,6R)-6-methoxy-3,8-diazabicyclo[3.2.1]octan-3-yl)-5,6,7,8-tetrahydropyrido[3,4-d]pyrimidine], for which the pIC50 in assay [1] is 7.05; in assay [3], less than 4.78. In assay [2], this compound had a pKd of 7.24.
On the same counts, the results for `Oc1cc(N2CCc3c(nc(OCC45CCCN4CCC5)nc3N3C[C@H]4CC[C@@H](C3)N4)C2)c2ccccc2c1` [Example 31, 4-(4-((1R,5S)-3,8-diazabicyclo[3.2.1]octan-3-yl)-2-((tetrahydro-1H-pyrrolizin-7a(5H)-yl)methoxy)-5,8-dihydropyrido[3,4-d]pyrimidin-7(6H)-yl)naphthalen-2-ol] are 8.42, 5.79 and 9.10.
Regarding `CN1CCC[C@H]1COc1nc2c(c(N3C[C@H]4CC[C@@H](C3)N4)n1)CCN(c1cccc3cccc(Cl)c13)C2` [Example 2, 4-((1R,5S)-3,8-diazabicyclo[3.2.1]octan-3-yl)-7-(8-chloronaphthalen-1-yl)-2-(((S)-1-methylpyrrolidin-2-yl)methoxy)-5,6,7,8-tetrahydropyrido[3,4-d]pyrimidine], the negative logarithm of the IC50 (pIC50) in assay [1] was 6.57; in assay [3], 4.79. The pKd in assay [2] is 6.79.
Regarding `CN1CCC[C@H]1COc1nc2c(c(N3C[C@H]4CC[C@@H](C3)N4)n1)CCN(c1cc(O)cc3cccc(Cl)c13)C2` [Example 28, 4-(4-((1R,5S)-3,8-diazabicyclo[3.2.1]octan-3-yl)-2-(((S)-1-methylpyrrolidin-2-yl)methoxy)-5,8-dihydropyrido[3,4-d]pyrimidin-7(6H)-yl)-5-chloronaphthalen-2-ol], the results for the pIC50 in assay [1] and in assay [3] were 8.92 and 6.44, respectively. In assay [2], the pKd is less than 3.00.
The matching figures for `CN1CCC[C@H]1COc1nc2c(c(N3CC4CCC(C)(C3)N4)n1)CCN(c1cc(O)cc3ccccc13)C2` (stereo partly drawn) [Example 61, 4-(4-(1-methyl-3,8-diazabicyclo[3.2.1]octan-3-yl)-2-(((S)-1-methylpyrrolidin-2-yl)methoxy)-5,8-dihydropyrido[3,4-d]pyrimidin-7(6H)-yl)naphthalen-2-ol]: 6.73, 5.16 and 6.76.

A word on the pIC50: it is −log10 of the IC50, conventionally taken in molar units. The term pKd denotes the negative decadic logarithm of the Kd, by convention in mol/L. Higher therefore signals a small Kd.
